Experimental data: ChEMBL document CHEMBL3507680, “University of Dundee, Gates Library screen for HepG2 cell viability”

Test: Human HepG2 cell viability assay in 384 well format
Type: toxicity, cell-based
Set-up: dose 125 nL, time 70.5 hour; cytotoxicity at 70.5 h: concentration not given beside the values
Conditions: HepG2 cells, read-out: Inhibition

O=S1(=O)COCCN1CCOc1ccccc1
cytotoxicity at 70.5 h: 17.3%

COc1ccccc1CN(Cc1cccnc1)Cc1c[nH]c(C)n1
cytotoxicity at 70.5 h: 8.36%

c1cc2c(cc1-c1noc3c1CN(C1CCSC1)CC3)OCO2 (stereo not given)
cytotoxicity at 70.5 h: -12.7%

CS(=O)(=O)NCCC(=O)N1Cc2cnc(-c3ccccc3)nc2C1
cytotoxicity at 70.5 h: 2.41%

O=C(c1cc(Cl)ccc1OC1CCN(C2CCCC2)CC1)N1CCCO1
cytotoxicity at 70.5 h: 11.8%

Cc1ccc(C(=O)N2CCSCC2)cc1N1CCNC1=O
cytotoxicity at 70.5 h: -5.73%

O=C(NCCc1ccncc1)c1ccc(N2CCOCC2)cc1
cytotoxicity at 70.5 h: 4.27%

Cc1nc(C)n(CCCNC(=O)C(C)n2ccnc2C(C)C)n1 (stereo not given)
cytotoxicity at 70.5 h: -5.67%

Cc1nn(C)c2nc(-c3ccccn3)nc(NC[C@@H]3CCCO3)c12
cytotoxicity at 70.5 h: 2.37%

CN1CCCN(C(=O)c2cccc(S(=O)(=O)NCC3(C)COC3)c2)CC1
cytotoxicity at 70.5 h: -0.00641%

CC(C)N1CCC(C(=O)N2CCc3c(nc(CC4CC4)[nH]c3=O)C2)CC1
cytotoxicity at 70.5 h: -7.62%

O=C(c1c[nH]c(=O)[nH]1)N1CCCC2(CCC(=O)N(C3CCCC3)C2)C1 (stereo not given)
cytotoxicity at 70.5 h: 1.3%

O=C(NCCc1noc(C2CCCO2)n1)c1cn2ccsc2n1 (stereo not given)
cytotoxicity at 70.5 h: -4.56%

CO[C@@H](C(=O)NC1CCOCC1)c1ccccc1
cytotoxicity at 70.5 h: 9.39%

CCc1ccc(CN2CCC(=O)N(CC3CC3)C(C(C)C)C2)nc1 (stereo not given)
cytotoxicity at 70.5 h: -11.4%

CC(C)=CCCC(C)CN1CCC(n2cc(C(=O)NCCO)nn2)CC1 (stereo not given)
cytotoxicity at 70.5 h: -4.56%

O=c1cc(N2CCCCC2)cnn1C[C@H](O)CO
cytotoxicity at 70.5 h: -3.44%

COCC[C@]1(O)CCN(Cc2nc(C)c(C)s2)C[C@H]1C
cytotoxicity at 70.5 h: -7.5%

CCOc1ccc2[nH]c(=O)c(CN3CCCC(CO)(CO)C3)cc2c1
cytotoxicity at 70.5 h: -4.6%

Cn1cc(CN2CCCC(CCc3ccc(F)cc3)C2)cn1 (stereo not given)
cytotoxicity at 70.5 h: 8.18%

CSCCC(=O)N1CCCC(c2ncc[nH]2)C1 (stereo not given)
cytotoxicity at 70.5 h: -21.7%

CSCc1noc(CNC(=O)c2cc(C)c(C)[nH]c2=O)n1
cytotoxicity at 70.5 h: -5.2%

CCCn1cnnc1CN(C)C(=O)C1CCC(=O)N(C2CCCC2)C1 (stereo not given)
cytotoxicity at 70.5 h: -3.21%

CCN(C)C(=O)Cn1c(-c2ccco2)nn(-c2ccccc2OC)c1=O
cytotoxicity at 70.5 h: 0.98%

c1cnc2c(-c3nccn3C[C@@H]3CCCN4CCCC[C@H]34)cccc2c1
cytotoxicity at 70.5 h: 2.23%

c1ccc(C2CCCN2Cc2nc(-c3cnccn3)no2)nc1 (stereo not given)
cytotoxicity at 70.5 h: -6.26%

CC(C)Oc1cccc(F)c1C(C(=O)O)N(C)Cc1ccon1 (stereo not given)
cytotoxicity at 70.5 h: 0.036%

CCCN1CC(NC(=O)Nc2nc(C)n(C(C)C)n2)CC1=O (stereo not given)
cytotoxicity at 70.5 h: -3.82%

Cc1cc(CNC(=O)c2ccc(C(C)N3CCCCC3)o2)[nH]n1 (stereo not given)
cytotoxicity at 70.5 h: -5.86%

CCN1CC(C(=O)N2CCN(c3cnn(C)c(=O)c3)CC2)CCC1=O (stereo not given)
cytotoxicity at 70.5 h: -9.64%

CN(C)CCn1ccnc1C1CCN(C(=O)CCc2cccnc2)CC1
cytotoxicity at 70.5 h: -4.1%

CCN1Cc2nc(OC)c(CNC(=O)CCC3CCCC3)cc2C1=O
cytotoxicity at 70.5 h: -11.1%

Cn1cc(CN2CCCC(O)C2)c(-c2ccccc2F)n1 (stereo not given)
cytotoxicity at 70.5 h: -6.51%

NC(=O)c1ccc(C2CCCN2C(=O)Cn2nc3ccccc3n2)s1 (stereo not given)
cytotoxicity at 70.5 h: 8.36%

Cc1cc(C)n(CCC2CC(=O)Nc3cc4[nH]ncc4cc32)n1 (stereo not given)
cytotoxicity at 70.5 h: -6.11%

O=C1N(CCCc2ccccc2)CCCC1(O)CN1CCC(CO)CC1 (stereo not given)
cytotoxicity at 70.5 h: -9.35%

Cc1nnc(CCNC(=O)Nc2ccc(S(C)(=O)=O)cc2)[nH]1
cytotoxicity at 70.5 h: 35.6%

Cc1c(Cl)cccc1NC(=O)N1CCC2(CC1)NC(=O)CC2C(=O)O (stereo not given)
cytotoxicity at 70.5 h: 1.01%

O=C(CN1CCc2ccccc2C1)NCc1cc2n(n1)CCCNC2
cytotoxicity at 70.5 h: -6.65%

CCC(CO)N(Cc1ccco1)C(=O)c1ccccc1NC (stereo not given)
cytotoxicity at 70.5 h: 0.632%

CC(C)Oc1cccc2c1c(NC(=O)CN(C)C)nn2CC(F)(F)F
cytotoxicity at 70.5 h: -8.54%

CCn1cnnc1CN(C)C(=O)c1cc(COc2cccc(F)c2)[nH]n1
cytotoxicity at 70.5 h: 10.8%

O=C(NC1CC1)C1CN(Cc2ccc3c(c2)OCCO3)CCN1 (stereo not given)
cytotoxicity at 70.5 h: -11.1%

O=C(O)[C@@H]1CN(C(=O)CN2CCCCCC2)C[C@H]1c1ccccc1
cytotoxicity at 70.5 h: 1.47%

Cc1ccc(-c2ccnc(NC(c3ncccc3C)C3CC3)n2)c(C)n1 (stereo not given)
cytotoxicity at 70.5 h: -3.87%

Cc1cnc(N)nc1N1CCN(CCCO)CC1
cytotoxicity at 70.5 h: -10.3%

Cc1ccccc1-c1ncc(CNCc2csc(C(C)C)n2)s1
cytotoxicity at 70.5 h: -5.31%

Cc1ccc(CN(Cc2ccccn2)C(=O)[C@H]2CC[C@@H](N)C2)s1
cytotoxicity at 70.5 h: -10.2%

CC(C)N(C)S(=O)(=O)c1ccc2c(c1)CCN(C(=O)c1cnccn1)C2
cytotoxicity at 70.5 h: -5.23%

O=C(c1cc(=O)n(-c2ccccc2)[nH]1)N1CCOCC(O)C1 (stereo not given)
cytotoxicity at 70.5 h: 22.9%

c1ccc(-c2nc3c(c(NCCn4ccnn4)n2)CCNCC3)nc1
cytotoxicity at 70.5 h: -6.02%

COc1ccc(OCCN2CCOCS2(=O)=O)cc1
cytotoxicity at 70.5 h: -6.02%

O=C1NCC(c2ccc(Cl)cc2)Cc2[nH]c(CCN3CCOCC3)nc21 (stereo not given)
cytotoxicity at 70.5 h: -12.7%

CC(C)n1ccnc1C1CCN(C(=O)N2CCCC2)CC1
cytotoxicity at 70.5 h: -9.54%

O=C(NC1CC1)c1ccnc(N2CCOC(c3ccc(Cl)c(Cl)c3)C2)c1 (stereo not given)
cytotoxicity at 70.5 h: 9.19%

CC(=O)N1CCN(C[C@H]2CC[C@@H](Cc3ccc4ncccc4c3)O2)CC1
cytotoxicity at 70.5 h: -10.6%

CCCN1C[C@H]2CC[C@@H]1CN(C(=O)Cn1c(C)cc(C)nc1=O)C2
cytotoxicity at 70.5 h: -14.9%

CC(C)=CCN1CCN(CCCOc2ccccc2)[C@H]2CS(=O)(=O)C[C@H]21
cytotoxicity at 70.5 h: -4.88%

O=C(CN1CCNCC1)NCc1ccc2sccc2c1
cytotoxicity at 70.5 h: 3.14%

COc1cc(NCC(c2ccccn2)N(C)C)ncn1 (stereo not given)
cytotoxicity at 70.5 h: -5.7%

CCc1noc(CN(CC)Cc2cc3ccc(F)cc3[nH]c2=O)n1
cytotoxicity at 70.5 h: 9.1%

CN(C)S(=O)(=O)N1CCN(CC2CCOc3ccccc3C2)CC1 (stereo not given)
cytotoxicity at 70.5 h: -4.7%

COCc1cc(NCc2ccccc2OC)ncn1
cytotoxicity at 70.5 h: -7.89%

Cc1noc(C)c1CCC(=O)N1CCOCC1CC(=O)N1CCCC1 (stereo not given)
cytotoxicity at 70.5 h: 1.48%

O=C(O)[C@@]12CN(c3cnccn3)C[C@@H]1CN(C1CCOCC1)C2
cytotoxicity at 70.5 h: -4.6%

Cc1[nH]c2c(F)cccc2c1CC(=O)N1CCN(C2CCSCC2)CC1
cytotoxicity at 70.5 h: -19.7%

CC1(C(=O)N2CCC(n3cc(C4(O)CCCC4)nn3)CC2)CCCCC1
cytotoxicity at 70.5 h: -9.72%

COc1ccc(OC)c2c(C)cc(N(CCO)CCO)nc12
cytotoxicity at 70.5 h: 19.5%

CCn1cc(SCC(=O)N2CCCC(O)(CO)C2)c2ccccc21 (stereo not given)
cytotoxicity at 70.5 h: -8.91%

CN1CCCN(C(C(=O)O)c2ccc3c(c2)OCO3)CC1 (stereo not given)
cytotoxicity at 70.5 h: 0.827%

CCN(CC)c1ccc(C(=O)N2C[C@@H]3CC[C@H](C2)N(CCOC)C3)cc1
cytotoxicity at 70.5 h: 23.2%

Cc1nc(C)c(C)c(N2C[C@@H](CN3CCCN(C)CC3)[C@@H](CO)C2)n1
cytotoxicity at 70.5 h: -1.83%

Cc1noc(C)c1C(=O)N1C[C@H]2CC[C@@H]1CN(c1cnccn1)C2
cytotoxicity at 70.5 h: -5.44%

CCCS(=O)(=O)N1CCC2(CCC(=O)N(Cc3ccccc3)C2)CC1
cytotoxicity at 70.5 h: -4.86%

CN1CCCN(C(=O)c2csc(-c3ccc(C(F)(F)F)cc3)n2)CC1
cytotoxicity at 70.5 h: -7.23%

COc1ccc(F)cc1-c1nc2c([nH]1)c(C1CC1)nn2C
cytotoxicity at 70.5 h: -4.46%

O=C(c1cccnc1O)N1CCC2(CCCO2)CC1
cytotoxicity at 70.5 h: -6.62%

CCNC(=O)c1cn2cc(-c3ccccc3Cl)n(CC3CC3)c(=O)c2n1
cytotoxicity at 70.5 h: 16.2%

Cc1cc(-c2nc(-c3c(C)ncc4c3CCNC4)no2)nc(C)n1
cytotoxicity at 70.5 h: 26.9%

CC(C)c1nnc(CN2C(=O)OC[C@@H]2C(C)C)o1
cytotoxicity at 70.5 h: -5.17%

Cc1noc(C)c1CN1C[C@@H](C(=O)O)[C@H](c2ccccn2)C1
cytotoxicity at 70.5 h: -6.58%

CC(c1ccccn1)N(C)Cc1cc2cc3c(cc2[nH]c1=O)OCO3 (stereo not given)
cytotoxicity at 70.5 h: 6.6%

COc1ccc(-c2ccnc(N)c2)c(OC)c1
cytotoxicity at 70.5 h: 13.7%

CN(C)S(=O)(=O)N1CC[C@]2(O)CCN(CCc3cccc(F)c3)C[C@@H]2C1
cytotoxicity at 70.5 h: -11.2%

CN(C)C(=O)N1CCN(CCCc2ccccc2)[C@H]2CS(=O)(=O)C[C@H]21
cytotoxicity at 70.5 h: -1.41%

Nc1nccc(N2C[C@@H](CN3CCCCC3)[C@@H](CO)C2)n1
cytotoxicity at 70.5 h: -6.83%

O=C(O)c1ccc(CNC(=O)C2CCN(C(=O)C3CCC3)CC2)s1
cytotoxicity at 70.5 h: -12.2%

CCc1[nH]c2c(CNc3nccc(N)n3)cc(F)cc2c1C
cytotoxicity at 70.5 h: 16.1%

Cc1ncc(S(C)(=O)=O)c(N2CCCCCC2)n1
cytotoxicity at 70.5 h: 7.29%

O=C(Nc1ccc(-c2cscn2)cc1)C1CCCN(Cc2ccon2)C1 (stereo not given)
cytotoxicity at 70.5 h: -1.4%

CCn1c(Cn2cncn2)nnc1C1CCN(Cc2cccnc2)CC1
cytotoxicity at 70.5 h: 9.57%

CN(C)S(=O)(=O)N1CC[C@]2(O)CCN(Cc3cc(F)cc(F)c3)C[C@@H]2C1
cytotoxicity at 70.5 h: 10.9%

CC(C)CN1CCc2[nH]cnc2C12CCN(C(=O)c1ccc[nH]1)CC2
cytotoxicity at 70.5 h: -3.93%

OC1(CNCCc2nc3c(s2)CCCC3)CNCCOC1 (stereo not given)
cytotoxicity at 70.5 h: 4.06%

Clc1ccc2nc(N3CCC(NCCCC4CCOC4)CC3)sc2c1 (stereo not given)
cytotoxicity at 70.5 h: 48.3%

CC(C)OC(=O)N1CCC(Cc2cccc(C(N)=O)c2)C1 (stereo not given)
cytotoxicity at 70.5 h: 35.3%

CN(CCO)C1CCN(c2ncc3c(n2)CCN3c2ccccc2)CC1
cytotoxicity at 70.5 h: -3%

CCC[C@@H]1CN(Cc2c[nH]nc2-c2ccc(F)cc2)C[C@H]1NS(C)(=O)=O
cytotoxicity at 70.5 h: -3.18%

COCCCN(C)[C@@H]1c2ccccc2C2(CCNCC2)[C@H]1O
cytotoxicity at 70.5 h: -9.86%

COc1ccc(CNC(=O)CCN2C[C@@H](C)[C@](O)(C3CC3)C2)cc1
cytotoxicity at 70.5 h: -4.82%

CCN1CCC(CC(=O)N2CCCCC2CCn2cccn2)CC1 (stereo not given)
cytotoxicity at 70.5 h: -11.1%

CN(Cc1csc(-c2ccccc2)n1)C(=O)CCNS(C)(=O)=O
cytotoxicity at 70.5 h: -8.29%

Cc1cc(C(=O)N2CCC(CCC(=O)NCCN(C)C)CC2)ccc1O
cytotoxicity at 70.5 h: 24.4%

COc1cccc(CCC2CCCN(C(=O)c3ccccn3)C2)c1 (stereo not given)
cytotoxicity at 70.5 h: 17.8%

CCC(CO)N(Cc1ccncc1)Cc1c[nH]nc1-c1ccc(F)cc1 (stereo not given)
cytotoxicity at 70.5 h: -7.22%

CCOCCn1c(=O)n(CCC(C)C)c2ncc(C(=O)O)cc21
cytotoxicity at 70.5 h: 1.96%

C[C@@H]1CN(C(=O)c2ccncc2)CC[C@@]1(O)C1CCOCC1
cytotoxicity at 70.5 h: -1.23%

Cc1cc(CN2CCC(CNC(=O)C3(c4ccccc4)CC3)C2)[nH]n1 (stereo not given)
cytotoxicity at 70.5 h: 6.56%

COCCN(C)C[C@H]1CC[C@@H](Cc2ccc3c(cnn3C)c2)O1
cytotoxicity at 70.5 h: -6.52%

COCCn1ccnc1C1CCN(C(=O)CSc2nnc(C)s2)CC1
cytotoxicity at 70.5 h: -5.74%
